Here are results for six compounds from patent US5438073A, “Dermatological and/or cosmetological composition containing retinoids” (Pierre Fabre Cosmetique, priority 1991, dated 1995).

SMILES strings stand for the structures. Where two headings read alike, the source gives them in different places.

In data set [1] the test system is cytosol extracts of human keratinocytes. Particulars: human epidermal cells; specific inhibitors of alcohol metabolism or excess of ethanol.
Method: We have measured the conversion of retinol to retinoic acid. We have also measured the enzymatic oxidation-reduction of retinal in human epidermal cell extracts in vitro (HPLC analysis of the products obtained by incubation of cytosol extracts with ^3 H-labeled RAL and ROL).
(§1) The HPLC analyses of the retinoids are carried out by the following technique:
(§2) A 100 μl aliquot of the cytosol fraction of keratinocytes is incubated with 600 μM (^3 H) retinol or (^3 H) retinal for 1 hour.
(§3) 5 μl of internal standard solution containing 4-oxoretinoic acid, all-trans-retinoic acid, 13-cis-retinoic acid, retinol and retinal are subsequently added to the reaction medium.
(§4) The radioactive material is then extracted with 3×1 ml of hexane.
(§5) The organic phase is collected and completely evaporated using a stream of nitrogen gas.
(§6) The residue is subsequently taken up in 50 μl of acetonitrile and analysed on an HPLC column.
(§7) The HPLC system consists of a VARIAN 5000 apparatus equipped with an ODS-Ultrasyl reverse-phase column (10 μm, 25×0.4 cm).
(§8) The unlabeled retinoids are detected by their absorbance measured at 340 nm. 600 μl fractions are also collected using a fraction collector, and their radio-activity is measured with a scintillation counter after adding 4 ml of Pico-fluor.
In data set [2] the test system is seborrheic dermatitis. The experiment in a line: application in the case of seborrheic dermatitis. Type of data set: in vivo, human. Particulars: 0.05% retinal, topical, daily; after treatment for one month. Here is the method:
This test was carried out on 10 subjects displaying the clinical signs of seborrheic dermatitis.
A topical application containing 0.05% of retinal was used in daily application for one month.

Data set [3] concerns normal human skin.
From the text: This test, carried out on 30 healthy volunteers, was intended to evaluate the existance of a biological effect and the tolerance after topical application of retinal.
Three concentrations, 1.0%, 0.1% and 0.05%, were used, in daily covered applications for at least 15 days and up to 3 months in 10 subjects.
In data set [4] the test system is rosacea. The experiment in a line: application in the case of rosacea. It is filed as in vivo, human. Particulars: 0.1% retinal, topical, daily. Here is the method: This test was carried out on 10 subjects displaying the clinical signs of rosacea. A topical application containing 0.1% of retinal was used in daily application for 3 months.
Data set [5] relates to psoriasis plaques. Particulars: for regression of the lesion score: with occlusion.
Method: For this reason, the 1% preparation was used and the effects of a daily application were compared with those of the excipient, in 12 patients.
The application was "open" in 6 cases, and with occlusion in six 6. 11 cases were able to be evaluated (5 with occlusion, 6 open). The effect was measured by standard methods (erythema 0-3, squama 0-3, infiltration 0-3), comparing the plaques treated with retinal with the symmetrical plaques treated with the excipients. Photographs were taken at each inspection.
Data set [6] has as its system human epidermal cell extracts.
Method: (§9) We have also measured the enzymatic oxidation-reduction of retinal in human epidermal cell extracts in vitro (HPLC analysis of the products obtained by incubation of cytosol extracts with ^3 H-labeled RAL and ROL).
as §1, §2, §3, §4, §5, §6, §7
(§10) The isocratic elution system consists of a mixture of solvents composed of 71% acetonitrile, 23% of ammonium acetate buffer (50 mM, pH 7) and 6% tetrahydrofuran, with a flow rate of 2.4 ml/min.
as §8
Data set [7] relates to extracts of normal human skin and of the psoriasis plaque.
Method: as §9, §1, §2, §3, §4, §5, §6, §7, §10, §8
For data set [8], the system named is normal human skin. Particulars: topically applied; cited from earlier work.
For data set [9], the system named is protein extract of psoriasis plaques / cytosol extracts of normal human skin. Type of data set: in vitro ADME. An excerpt: Furthermore, the Applicant has shown that the protein extract of psoriasis plaques was also capable of converting retinol to retinoic acid, but with a lower activity (0.33+0.07 pmol/h/mg) than differentiated keratinocytes.
These differences in the conversion activity may be attributed to the differences in biological activity of the tissues studied or to their different state of differentiation.

For `Cc1cn[nH]c1` [4-methylpyrazole], the “effect on the production of retinoic acid from retinol” value in [1] was “not affected”.
The same measure, in the same setting: next, `CCN(CC)C(=S)SSC(=S)N(CC)CC` [disulfiram]: “not affected”; `CCO` [ethanol]: “not affected”.
As to `CC1=C(/C=C/C(C)=C/C=C/C(C)=C/C=O)C(C)(C)CCC1` [retinal], the “subjects left with almost no characteristic signs of seborrheic dermatitis” value in data set [2] was 80%. Besides, the “biological effect on normal skin” value in data set [3] (0.1% and 0.05% preparations, topical, healthy volunteers) is on record as “better appearance of the skin”. For the same compound, in data set [3] (in vivo), the “cases in which an irritation arose” value worked out at 10%, the “irritation / dermatitis caused by the retinoids” value is on record as “no irritation was noted”, the skin coloration induced result is listed as “yellowish coloration” and the tolerability entry was “excellent”. Also, the “subjects left with almost no sign of characteristic erythrosis of rosacea” value in data set [4] (after treatment for 3 months) amounted to 70%. The “cases with a substantial improvement in the rosacea” value in data set [4] (from the first month, 10 subjects) is listed as 6 of the 10. For the same compound, the “effect on psoriasis plaques” value in data set [5] (0.1% and 0.05% preparations, initial pilot study) is given as “only a modest effect”. For the same compound, in data set [5] (0.1% and 0.05% preparations, psoriasis plaques), the “effect on the action of UVA” value is given as “potentiating effect”. Moreover, the “results in the open series” value in data set [5] (1% preparation, daily, open application, 6 cases) is “only one very good result was noted, with one good and four modest results”. Also, the “regression of the lesion score” value in [5] (1% preparation, daily, 3 of the 5 cases, from the first week) is “more than 50%”. In addition, the “regression of the lesion score” value in [5] (1% preparation, daily, one case (good result)) is on record as 30%. Besides, the “regression of the lesion score” value in data set [5] (1% preparation, daily, one case (modest result)) worked out at 10%. For the same compound, the “local reaction on the psoriasis plaque” value in [5] (in vivo) is recorded as “inflammation specifically localized on the psoriasis plaque”. For the same compound, in data set [6], the oxidation of retinal amounted to 51.6 pmol/h/mg. Moreover, in [7], the “oxidation of retinal to retinoic acid” value worked out at 1.35 ± 0.4 pmol/h/mg.
Consider `CC1=C(/C=C/C(C)=C/C=C/C(C)=C/C(=O)O)C(C)(C)CCC1` [retinoic acid], for which the “topical concentration at which dermatitis caused by the retinoids is observed” value in data set [8] is no less than 0.01%.
As to `CC1=C(/C=C/C(C)=C/C=C/C(C)=C/CO)C(C)(C)CCC1` [retinol], in [9], the “activity of converting retinol to retinoic acid” value is recorded as 0.33+0.07 pmol/h/mg and the “conversion of retinol to retinoic acid” value is “no measurable degree of conversion”.
